Test system: Formosan subterranean termites
Test: Petri dish treated/untreated sand bioassay for repelling activity against termites
Assay type: in vivo, Coptotermes formosanus
Design: key to percent of termites on untreated sand vs expected value of 50% (Chi-Square, p≦0.05): “−” indicates the test was not significantly different from the expected value; “+” indicates the test was significantly different from the expected value
Protocol: A carton nest (colony A) of Formosan subterranean termites was collected in Algiers, Louisiana in November 1997, and held in 250-liter cans. The cans were filled with pine as a food source, and kept at a temperature range of 24-26° C. Moistened corrugated cardboard rolls were used to retrieve termites from the cans. Once the termites migrated to the cardboard rolls, they were gently knocked from the cardboard rolls into clean rectangular plastic trays (40 cm×50 cm). Retrieved termites were isolated from debris by allowing them to cling to sheets of moistened paper towels. The average weight of each termite was 1.21 mg.
To test for effectiveness of nootkatone, 1,10-dihydronootkatone and tetrahydronootkatone in repelling termites, a bioassay was conducted using Petri dishes (5 cm diameter and 1 cm height). To ensure adequate moisture for the termites, 1 ml of a hot agar solution (1.5% in H2O) was spread on the bottom of the Petri dish. After the agar cooled, sand that was treated as described below was spread on the bottom of the Petri dish. For the treated sand, purified 1,10-dihydronootkatone or tetrahydronootkatone were dissolved in 2 ml ethanol, and then diluted to achieve final concentrations of 1, 2, 5, 12.5, 25, 50, and 100 μg/g sand. The solution was mixed with 1 g sand that had been autoclaved and cooled. The control sand was autoclaved sand with only 200 μl ethanol added. One half of the surfaces in the Petri dishes were covered with 1 g treated sand, and the other half with 1 g untreated sand.
The prepared Petri dishes were then used to evaluate the repelling activity against Formosan subterranean termites. Ten worker termites were added to each Petri dish, and the dishes were covered to eliminate light. Five replicate dishes were tested for each concentration and for the control. Termite position was recorded every 15 min during the first hour of testing by counting the number of termites observed on untreated sand. After the first hour, termite position was recorded each hour for 3 hr.
Differences between the percent of termites on untreated sand and an expected value were statistically analyzed by a Chi-Square analysis, using an expected value of 50% and a significance level of p≦0.05.

Compound: C=C(C)C1CCC2CC(=O)CC(C)C2(C)C1 (centres unmarked) [Dihydronootkatone, 1,4,4a,5,6,7,8,10-octahydro-6-isopropenyl-4,4a-dimethyl-2(1H)-naphthalenone]
- percent of termites on untreated sand vs expected value of 50% (Chi-Square, p≦0.05) (2 μg/dish, 0.25 hour): −
- percent of termites on untreated sand vs expected value of 50% (Chi-Square, p≦0.05) (2 μg/dish, 0.5 hour): −
- percent of termites on untreated sand vs expected value of 50% (Chi-Square, p≦0.05) (2 μg/dish, 0.75 hour): −
- percent of termites on untreated sand vs expected value of 50% (Chi-Square, p≦0.05) (2 μg/dish, 1 hour): −
- percent of termites on untreated sand vs expected value of 50% (Chi-Square, p≦0.05) (2 μg/dish, 2 hour): −
- percent of termites on untreated sand vs expected value of 50% (Chi-Square, p≦0.05) (2 μg/dish, 3 hour): −
- percent of termites on untreated sand vs expected value of 50% (Chi-Square, p≦0.05) (5 μg/dish, 0.25 hour): −
- percent of termites on untreated sand vs expected value of 50% (Chi-Square, p≦0.05) (5 μg/dish, 0.5 hour): −
- percent of termites on untreated sand vs expected value of 50% (Chi-Square, p≦0.05) (5 μg/dish, 0.75 hour): −
- percent of termites on untreated sand vs expected value of 50% (Chi-Square, p≦0.05) (5 μg/dish, 1 hour): −
- percent of termites on untreated sand vs expected value of 50% (Chi-Square, p≦0.05) (5 μg/dish, 2 hour): −
- percent of termites on untreated sand vs expected value of 50% (Chi-Square, p≦0.05) (5 μg/dish, 3 hour): −
- percent of termites on untreated sand vs expected value of 50% (Chi-Square, p≦0.05) (12.5 μg/dish, 0.25 hour): +
- percent of termites on untreated sand vs expected value of 50% (Chi-Square, p≦0.05) (12.5 μg/dish, 0.5 hour): +
- percent of termites on untreated sand vs expected value of 50% (Chi-Square, p≦0.05) (12.5 μg/dish, 0.75 hour): +
- percent of termites on untreated sand vs expected value of 50% (Chi-Square, p≦0.05) (12.5 μg/dish, 1 hour): +
- percent of termites on untreated sand vs expected value of 50% (Chi-Square, p≦0.05) (12.5 μg/dish, 2 hour): +
- percent of termites on untreated sand vs expected value of 50% (Chi-Square, p≦0.05) (12.5 μg/dish, 3 hour): +
- percent of termites on untreated sand vs expected value of 50% (Chi-Square, p≦0.05) (25 μg/dish, 0.25 hour): −
- percent of termites on untreated sand vs expected value of 50% (Chi-Square, p≦0.05) (25 μg/dish, 0.5 hour): +
- percent of termites on untreated sand vs expected value of 50% (Chi-Square, p≦0.05) (25 μg/dish, 0.75 hour): +
- percent of termites on untreated sand vs expected value of 50% (Chi-Square, p≦0.05) (25 μg/dish, 1 hour): +
- percent of termites on untreated sand vs expected value of 50% (Chi-Square, p≦0.05) (25 μg/dish, 2 hour): +
- percent of termites on untreated sand vs expected value of 50% (Chi-Square, p≦0.05) (25 μg/dish, 3 hour): +
- percent of termites on untreated sand vs expected value of 50% (Chi-Square, p≦0.05) (50 μg/dish, 0.25 hour): +
- percent of termites on untreated sand vs expected value of 50% (Chi-Square, p≦0.05) (50 μg/dish, 0.5 hour): +
- percent of termites on untreated sand vs expected value of 50% (Chi-Square, p≦0.05) (50 μg/dish, 0.75 hour): +
- percent of termites on untreated sand vs expected value of 50% (Chi-Square, p≦0.05) (50 μg/dish, 1 hour): +
- percent of termites on untreated sand vs expected value of 50% (Chi-Square, p≦0.05) (50 μg/dish, 2 hour): +
- percent of termites on untreated sand vs expected value of 50% (Chi-Square, p≦0.05) (50 μg/dish, 3 hour): +
- percent of termites on untreated sand vs expected value of 50% (Chi-Square, p≦0.05) (100 μg/dish, 0.25 hour): +
- percent of termites on untreated sand vs expected value of 50% (Chi-Square, p≦0.05) (100 μg/dish, 0.5 hour): +
- percent of termites on untreated sand vs expected value of 50% (Chi-Square, p≦0.05) (100 μg/dish, 0.75 hour): +
- percent of termites on untreated sand vs expected value of 50% (Chi-Square, p≦0.05) (100 μg/dish, 1 hour): +
- percent of termites on untreated sand vs expected value of 50% (Chi-Square, p≦0.05) (100 μg/dish, 2 hour): +
- percent of termites on untreated sand vs expected value of 50% (Chi-Square, p≦0.05) (100 μg/dish, 3 hour): +
- factor by which the effective termite-repellent concentration is lower than that of nootkatone (relative to nootkatone): 8
- concentration effective as termite repellent (time periods up to 3 hr): 12.5 µg
